Tests used:
[1] = test system: mitochondrial transfer from BM-MSC to UCB iTregs; experiment: Mitochondrial transfer from mt-GFP lentivirus transduced MSC into iTregs, flow cytometry; type: cell-based, human
[2] = test system: TNT formation; conditions: Sáenz-de-Santa-María et al., Oncotarget, 2017; cited from earlier work
[3] = test system: mitochondrial transfer from BM-MSC to UCB iTregs; experiment: Mitochondrial transfer from BM-MSC into UCB iTregs, MitoTracker Red FM by confocal microscopy; type: cell-based, human
[4] = test system: mitochondrial transfer from hBM-MSC to iTreg; experiment: Mitochondrial transfer from BM-MSC into iTregs, MitoTracker green by flow cytometry; type: cell-based, human; conditions: Cytochalasin B 350 nM treated BM-MSC, 24 h, n=6; Mock 2208±122.1
[5] = test system: BACH2, SENP3, Foxp3 in iTreg; experiment: iTreg Foxp3, BACH2 and SENP3 protein expression; type: cell-based, human; conditions: after cytochalasin B treatment

For `Nc1ncnc2c1ncn2[C@@H]1O[C@H](COP(=O)(O)CP(=O)(O)O)[C@@H](O)[C@H]1O` [Adenosine 5′-(α,(β-methylene)diphosphate, Adenosine 5′-(α,β-methylene)diphosphate], the “mitochondrial transfer from BM-MSC to UCB iTregs (mt-GFP+ iTregs)” value [1] was “significantly blocks mitochondrial transfer”.

In the case of `C=C1[C@@H](C)[C@H]2[C@H](Cc3ccccc3)NC(=O)[C@]23[C@H](OC(C)=O)/C=C/[C@@](C)(O)C(=O)[C@@H](C)C/C=C/[C@H]3[C@@H]1O` [Cytocalasin D, Cytochalasin D], the TNT formation [2] is listed as “significant reduction”.

For `CC(=O)N[C@@H](CS)C(=O)O` [N-acetylcysteine], the “mitochondria uptake by Treg (confocal)” value ([3]; 200 uM added to BM-MSC+iTreg culture, 24-36 h) was “minimally reduced”.

In the case of `C=C(C)[C@H]1Cc2c(ccc3c2O[C@@H]2COc4cc(OC)c(OC)cc4[C@@H]2C3=O)O1` [rotenone], the “transfer of mitochondria into iTregs from rotenone treated MSC” value ([1]; rotenone treated mt-GFP MSC platform, 72 hrs) is reported as “do not transfer”.

In the case of Cytochalasin B, the “mitochondrial transfer from hBM-MSC to iTreg (MitoTracker MFI)” value [4] is reported as 923.8±89 MFI, the “mitochondrial transfer from MSC to UCB iTregs (MitoTracker+ iTregs, confocal)” value ([3]; 350 nM, 24 h) is reported as “significantly blocks mitochondrial transfer” and the “iTreg BACH2 protein expression” value [5] is reported as “dramatically decreased”. The “iTreg SENP3 protein expression” value [5] was “no significant effect”.
